{"source": "patent US7935525B2", "about": "“Inhibition of ATF2 activity to treat cancer” (Mount Sinai School of Medicine, priority 2001, dated 2011)", "key": {"[1]": {"tested_on": "AP1 complex", "details": "previous studies; cited from earlier work"}, "[2]": {"tested_on": "ATF2 transcriptional activity", "assay": "Jun2 promoter reporter in Jun null fibroblasts", "format": "cell-based"}, "[3]": {"tested_on": "293T human kidney embryonic cells", "assay": "Apoptosis by FACS (hypodiploid fraction)", "format": "cell-based", "details": "peptide-expressing 293T; normal growth conditions", "procedure": "[Worded in the source for another cell line; this cell line is reported under the same test.] (§1) Treatment and apoptosis studies of stably transfected melanoma cells. Cells were exposed to UVC at 75 J/m^2 as previously described (Ronai, Z., et al., Oncogene 1998; 16:523-531). SB203580 (1-10 μM) (Calbiochem®, San Diego, Calif.), NCS (50-100 ng/ml) and mitomycin C (MMC) (0.2-1 μM) were used to treat melanoma cells. Flow cytometric analysis was performed on a FACSCalibur™ flow cytometer (Becton Dickinson) using CellQuest™ software as described previously (Nicoletti et al., J. Immunol. Methods 1991; 139:271-279). Cells were pelleted and resuspended in 0.5 ml of hypotonic buffer with 0.1% Triton X-100 containing PI (40 μg/ml) and DNase-free RNase A (1 mg/ml). Cells were incubated at 37° C. for 30 min and analyzed on a FACSCalibur™ flow cytometer (Becton Dickinson). The percentage of cells to the left of the diploid G0/1 peak, characteristic of hypodiploid cells that have lost DNA, was defined as the percentage of apoptotic cells. Analysis was performed with light scatter gating. Surface expression of Fas was determined using anti-Fas-PE antibody (PharMingen® CA) and flow cytometric analysis. Cell surface expression is measured as mean fluorescence intensity (MFI)."}, "[4]": {"tested_on": "human melanocytes (FOM71)", "assay": "Apoptosis by FACS (hypodiploid fraction)", "format": "cell-based", "details": "transient peptide expression; UV 75 J/m^2; 36 h", "procedure": "as §1"}, "[5]": {"tested_on": "LU1205 cells", "assay": "Apoptosis by FACS (hypodiploid fraction)", "format": "cell-based, human", "details": "peptide-expressing LU1205", "procedure": "as §1"}, "[6]": {"tested_on": "Fas", "assay": "Cell surface expression of Fas by FACS", "format": "cell-based, human", "details": "peptide-expressing LU1205; control 122", "procedure": "as §1"}, "[7]": {"tested_on": "Fas promoter", "assay": "Fas promoter activity (-460 Fas promoter region)", "format": "cell-based, human", "details": "peptide-expressing LU1205"}, "[8]": {"tested_on": "ATF2", "assay": "ATF2 phosphorylation in peptide-expressing melanoma cells", "format": "cell-based, human", "details": "vs control vector cells"}, "[9]": {"tested_on": "SW1 tumors", "assay": "cDNA microarray expression profiling of SW1 tumors", "format": "in vivo, mouse", "procedure": "cDNA microarray hybridizations. The 10 k mouse Gem 2 gene set (Incyte Genomics Inc, Palo Alto Calif.) was printed at the NCI on poly-L lysine coated glass using Biorobotics TASII arrayer (Cambridge, England). All protocols for the manufacturing and hybridization of microarrays are available at the NCI web site. Approximately 20 μg of total RNA was used in the reverse transcription reaction to directly label the probe with either Cy-5 dUTP or Cy-3 dUTP (Amersham®). Hybridizations were performed at 65° C. for 12-18 h in a hybridization volume of […]. The hybridized arrays were scanned using an Axon GenePix 4000® scanner (Union city, CA) and fluorescent data were collected using GenePix™ software.\nData Analysis. The axon image data for each microarray was uploaded to the NCI mAdb database for subsequent analysis using a variety of statistical web based tools. Gene clustering analysis was performed using the clustering algorithm and tree view software developed by Mike Eisen (Stanford, Calif.)."}, "[10]": {"tested_on": "Jun2-Luc", "assay": "Jun2-Luc reporter in ATF2 null cells", "format": "cell-based"}, "[11]": {"tested_on": "FAS", "assay": "Cell surface FAS receptor by FACS in SW1 cells", "format": "cell-based, mouse", "details": "peptide-expressing SW1 vs control", "procedure": "Electrophoretic mobility shift assays were performed as described. (Ivanov and Ronada, J Biol Chem 1999; 274(20):14079-89). GST binding assays were performed with GST-peptide II as described (Adler et al., Proc Natl Acad Sci USA 1995; 92 10585-9). SW1 cells expressing control vector or peptide II were subjected to FACS analysis following their incubation with antibodies to the cell surface receptor of FAS as described above."}, "[12]": {"tested_on": "LU1205 tumor cells", "assay": "Growth of transplanted LU1205 tumors in mice", "format": "in vivo", "procedure": "Tumor growth and metastasis evaluation in vivo. Cell lines established in culture to constitutively or inducibly express the peptide were injected into mice subcutaneously (S.C.). LU1205, FEMX and SW-1 cells that expressed control or peptide II were trypsinized, resuspended in PBS and injected SC (1×10^6) into 6-7 week old mice in the lower flank. When the tumor reached the size of about 50 mm^3, 5 μM of SB203580 was injected into four areas of the LU1205 tumors every 4 days during a 2-week period. For FEMX tumors UCN-01 (2.5 mg/kg) was fed by gavage twice a day, three times per week for a total of 2 weeks. Tumor growth was monitored every two days. SW-1 cells expressing peptide II under tet-inducible vector were injected SC (1×10^6). When tumors reached a size of about 50 mm^3, the mice received doxycycline in their drinking water ([…]) for a total of 2-4 weeks. At the end of the experiment, the tumors were excised and weighed. The lungs and other organs were subjected to histopathological examination to detect metastatic lesions."}, "[13]": {"tested_on": "JNK", "assay": "In vitro phosphorylation of the peptide", "format": "biochemical"}, "[14]": {"tested_on": "SW1 cells", "assay": "Cell cycle distribution after synchronization and serum stimulation", "format": "cell-based, mouse", "details": "18-24 h after serum stimulation of synchronized cells"}, "[15]": {"tested_on": "MCF7 breast cancer-derived cell line", "assay": "Apoptosis by FACS (hypodiploid fraction)", "format": "cell-based, human", "details": "peptide-expressing MCF7", "procedure": "[Worded in the source for another cell line; this cell line is reported under the same test.] as §1"}, "[16]": {"tested_on": "WM1552 early-phase melanoma cell line", "assay": "Apoptosis by FACS (hypodiploid fraction)", "format": "cell-based, human", "details": "peptide-expressing WM1552; UV-C 75 J/m2; 36 h", "procedure": "as §1"}, "[17]": {"tested_on": "Adriamycin-resistant MCF7 cell line (MCF7-Adr)", "assay": "Apoptosis by FACS (hypodiploid fraction)", "format": "cell-based, human", "details": "peptide-expressing MCF7-Adr; neo controls 3-fold; 36 h", "procedure": "[Worded in the source for another cell line; this cell line is reported under the same test.] as §1"}, "[18]": {"tested_on": "FEMX cells", "assay": "Apoptosis by FACS (hypodiploid fraction)", "format": "cell-based, human", "procedure": "as §1"}, "[19]": {"details": "tumors expressing peptide vs control vector"}}, "note": "“Also recorded” adds a separate entry of the source. No end group written: not given here."}
{"substance": "peptide II: N-terminal polypeptide fragment of ATF2, amino acid residues 50-100, expressed from pcDNA3 with HA-penetratin tag (EMTLKFGPARNDSVIVADQTPTPTRFLKNCEEVGLFNELASPFENEFKKAS; also: HA-penetratin tag, position not given here; UniProt P15336 50-100, looked up, fragment)", "values": [{"measurement": "inhibition of transcriptional activity mediated from the AP1 complex", "setting": "[1]", "result": 3, "unit": "fold"}, {"measurement": "transcriptional activity mediated from the Jun2 promoter", "setting": "[2]", "result": "marked inhibition"}, {"measurement": "increase in the degree of basal apoptosis", "setting": "[3]", "result": 5, "unit": "fold"}, {"measurement": "sensitivity to undergo UV-induced apoptosis", "setting": "[4]", "result": "did not cause a significant increase"}, {"measurement": "increase in apoptosis comparable to neo expressing cells", "setting": "[5]; Adriamycin + verapamil", "result": 10, "unit": "fold"}, {"measurement": "increase in degree of apoptosis over control neo cells given Adriamycin and verapamil", "setting": "[5]; Adriamycin + verapamil", "result": 50, "unit": "%"}, {"measurement": "apoptotic fraction of UV-treated cells", "setting": "[5]; UV-C 75 J/m2, 36 h, neo control 15%", "result": 38, "unit": "%"}, {"measurement": "increase in the degree of cell death", "setting": "[5]; higher doses (10 μM) of SB203580, 36 h", "result": "greater than 6 fold"}, {"measurement": "increase in cell death", "setting": "[5]; low doses of SB203580, 36 h", "result": 3, "unit": "fold"}, {"measurement": "increase in the sensitivity to UV-induced apoptosis", "setting": "[5]; treatment with JAK inhibitor AG490", "result": 3, "unit": "fold"}, {"measurement": "cell surface expression of Fas, mean fluorescence intensity", "setting": "[6]", "result": 186}, {"measurement": "Fas promoter mediated transcription", "setting": "[7]", "result": "increase in Fas-mediated transcription"}, {"measurement": "ATF2 phosphorylation after UV-treatment", "setting": "[8]; UV-treated", "result": "reduced"}, {"measurement": "degree of ATF2 phosphorylation", "setting": "[8]; non-stressed growth conditions", "result": "higher degree of ATF2 phosphorylation"}, {"measurement": "expression of ATF2", "setting": "[9]; four independent experiments", "result": "downregulated"}, {"measurement": "expression of ATF4 transcripts", "setting": "[9]; four independent experiments", "result": "increase"}, {"measurement": "transcripts of interleukin-1 beta, cullin 3, kinesin-associated protein 3, ATF3 and membrane metallo-endopeptidase", "setting": "[9]; tumors expressing peptide", "result": "up-regulated"}, {"measurement": "transcripts of tyrosine kinase 2, metallothionein 2 and ubiquitin-specific protease 18", "setting": "[9]; tumors expressing peptide", "result": "downregulated"}, {"measurement": "expression of Fas-associated genes", "setting": "[9]; [19]", "result": "Downregulation"}, {"measurement": "expression of growth-associated genes", "setting": "[9]; [19]", "result": "consistent downregulation"}, {"measurement": "expression of interferon-associated genes", "setting": "[9]; [19]", "result": "consistent downregulation"}, {"measurement": "expression of tumor necrosis factor-related genes (and other tumor antigens)", "setting": "[9]; [19]", "result": "strongly upregulated"}, {"measurement": "Jun2-Luc activities", "setting": "[10]", "result": "did not affect"}, {"measurement": "level of FAS on the cells", "setting": "[11]", "result": "greatly increased"}, {"measurement": "inhibition of tumor growth", "setting": "[12]; combination: peptide-expressing LU1205 + SB203580", "result": "significant inhibition of tumor growth; also recorded: more effective"}, {"measurement": "tumor cell growth", "setting": "[12]; single agent: inhibitor injected into tumor, or peptide expressed in tumor cells", "result": "grew much more slowly"}, {"measurement": "phosphorylation of the peptide by JNK", "setting": "[13]", "result": "Neither JNK nor p38 was found capable of phosphorylating"}, {"measurement": "number of cells in the S-phase, lower than control cell population", "setting": "[14]", "result": 2, "unit": "fold"}, {"measurement": "increase in sensitivity to UCN-01 elicited apoptosis", "setting": "[15]", "result": "~2", "unit": "fold"}, {"measurement": "increase in degree of apoptosis following UV-treatment relative to non-irradiated cells", "setting": "[15]; neo control 4-fold, 36 h", "result": "~9", "unit": "fold"}, {"measurement": "effect on the basal level of apoptosis", "setting": "[15]; no treatment", "result": "minimal effect"}, {"measurement": "sensitization to UV-induced apoptosis", "setting": "[16]", "result": "no longer was able to elicit sensitization"}, {"measurement": "increase in apoptosis following UV-treatment", "setting": "[17]", "result": 8, "unit": "fold"}, {"measurement": "increase in the degree of UCN-01-elicited apoptosis", "setting": "[18]; peptide-expressing FEMX vs parent", "result": "> 3", "unit": "fold"}, {"measurement": "apoptotic fraction of UV-treated cells", "setting": "[18]; peptide-expressing FEMX, UV-C 75 J/m2, 36 h, neo control 13%", "result": 28, "unit": "%"}]}
